# Experimental data as given in patent US9353116B2, “Methods and compositions for kinase inhibition” (THE REGENTS OF THE UNIVERSITY OF CALIFORNIA, priority 2010, dated 2016).
# Columns and labels:
# 307 kinases = test: Kinome-wide profiling (SelectScreen Kinase Profiling Service); format: biochemical; settings: compounds at 1 μM, ATP at Km,app
# Description: The percent inhibition results in FIG. were generated with biochemical enzymatic kinase assays using the SelectScreen® Kinase Profiling Service (Life Technologies Corporation, Madison, Wis.). Compounds were assayed at 1 μM at an ATP concentration equal to the ATP Km,app for the assay following the detailed procedures described in the SelectScreen® Customer Protocol and Assay Conditions documents located at www.invitrogen.com/kinaseprofiling.
# Compounds that were profiled include, but are not limited to, 3, 4, 9, 13, and 20. […] The exocyclic amine mimics N6 of ATP and plays an important role in a hydrogen bonding interaction with the hinge region of kinases.
# c-Src-ES2 (T338C/V323A) = c-Src-ES2 (T338C/V323A) (Gallus gallus (Chicken), UniProt P00523, T338C/V323A); test: In vitro kinase assay, c-Src-ES2; format: biochemical
# Description: (§1) In vitro kinase assays for c-Src variants were performed in 50 mM Tris (pH 8.0), 10 mM MgCl2 and 1 mg/mL BSA. When obtaining kinetic parameters (kcat, Km) kinase and peptide substrate (IYGEFKKK) (SEQ ID NO:51) concentrations were 2 nM and 500 μM, respectively, while ATP concentrations ranged from 2000-0.655 μM. Addition of nonradioactive ATP supplemented with ^32P ATP (3,000 Ci/mmol, NEN) was used to initiate kinase reactions. Time points were selected such that product formation never exceeded 10%. Reactions were quenched by spotting 3 μL quantities onto phosphocellulose sheets (P81, Whatman). Afterwards, the sheets were washed 3×5 minutes in 0.5% phosphoric acid and dried. Radioactivity was measured by phosphorimaging and recorded on a Typhoon fluorescence imager (Molecular Dynamics). Data were plotted as rate (min^−1) versus ATP concentration and fitted to the Michaelis-Menten equation, v=[(kcat)[S]]/(Km+[S]), using Kaleidagraph software (Synergy) to extract kinetic parameters. When obtaining IC50 values for the inhibitors, 2% (v/v) DMSO was included in kinase reactions. In these cases ATP, peptide, and enzyme concentrations were 15 nM, 100 μM and 5 nM, respectively, while inhibitor concentrations ranged from 10,000-0.610 nM. In all cases, a ten-minute preincubation step between the kinase and the inhibitor preceded addition of ATP and a fifteen-minute reaction. The data was fitted to a sigmoidal dose-response curve using Prism 4.0c (GraphPad Software) to obtain IC50 values.
# T338C c-Src = T338C c-Src (Gallus gallus (Chicken), UniProt P00523, T338C); test: Full protein mass spectrometry of covalent labeling; format: binding; settings: two equivalents of inhibitor
# Description: Protein labeling conditions: Kinase labeling reactions were performed by incubating 30 μL quantities of c-Src variants (in 50 mM Tris pH 8, 100 mM NaCl, 1 mM DTT, 5% glycerol) with two equivalents of inhibitor in DMSO (final DMSO concentration=2.4%). The covalent labeling reaction was quenched by removing 4 μL and adding it to 31 μL of 0.1% formic acid. The sample was then analyzed by ES1-oa-TOF mass spectrometry.
# WT c-Src [1] = target: T1, WT c-Src (Gallus gallus (Chicken), UniProt P00523); test: Gel filtration and kinetic assay, WT c-Src; format: biochemical; settings: 23 μM inhibitor, 25 minutes, then PD10 desalting
# Description: Inhibitors (final concentration 23 μM) were incubated with c-Src variants (final concentration 11.5 μM) in kinase reaction buffer (50 mM Tris pH 8, 100 mM NaCl, 1 mM DTT, 5% glycerol, 5% DMSO) for 25 minutes at room temperature. The solutions (2.6 mL total) were then passed over PD10 desalting columns (GE Healthcare) using the kinase reaction buffer for elution. Src concentrations were calculated using the extinction coefficient for c-Src (51.140 mM^−1cm^−1) {Seeliger, 2005 #100}. Kinase assays were performed as described in the experimental section at a final enzyme concentration of 10 nM.
# WT c-Src [2] = target: T1, WT c-Src; test: In vitro kinase assay, WT c-Src; format: biochemical; settings: inhibitor preincubated with Src ten minutes prior to addition of ATP; read-out: WT c-Src IC50
# Description: as §1
# v-Src-ES1 (I338C) = v-Src-ES1 (I338C) (Rous sarcoma virus (strain H-19), UniProt P25020, I338C); test: Inhibition assay with v-Src-ES1 transformed NIH-3T3 cells; format: cell-based
# Description: Curr Biol 8(5):257-266. Cells were grown to 60-90% confluence in DMEM supplemented with fetal bovine serum (10%), penicillin ‘G’ (100 units/ml) and streptomycin sulfate (100 μg/ml) (PenStrep, UCSF Cell Culture Facility) prior to treatment with kinase inhibitors dissolved in DMSO (final DMSO concentration, 0.5%). Following 1 hour of incubation with inhibitors at 37° C., cells were harvested in lysis buffer (50 mM Tris (pH 7.4), 300 mM NaCl, 5 mM EDTA, 1% triton, 0.02% NaN3, 1× complete mini protease inhibitor (Roche), 1 mM PMSF, 1×PHOS-stop (Roche), 0.02 μM microcystin, 2 mM sodium orthovanadate), normalized for concentration and analyzed by Western blot for global phosphotyrosine levels (4G10, Millipore, 1:1000). Levels of β-actin (β-actin Antibody, Cell Signaling, 1:1000) and v-Src (Src 32G6 rabbit mAb, Cell Signaling, 1:1000) were ascertained by Western blot.
# I338C (v-Src-ES1, SEQ ID NO:48), I338T (SEQ ID NO:49), I338G (v-Src-AS1, SEQ ID NO:50) and WT v-Src-transformed NIH-3T3 cell lines were generated. Unlike c-Src, v-Src is constitutively active and harbors an isoleucine gatekeeper. The I338T v-Src variant was generated for consistency with the in vitro c-Src studies. For each cell line, global levels of phosphotyrosine were analyzed (FIG. 7). […]
compound,measurement,setting,value
"CC(C)n1nc(Cc2cccc(C(=O)CF)c2)c2c(N)ncnc21 [Compound 13, 1-(3-((4-amino-1-isopropyl-1H-pyrazolo[3,4-d]pyrimidin-3-yl)methyl)phenyl)-2-fluoroethanone]",off-target profile in kinome-wide screen,307 kinases,clean profile
same,IC50,"c-Src-ES2 (T338C/V323A); ES2 = T338C/V323A, read-out: c-Src variant IC50 (nM) ES2",67 nM
same,change of inhibitor potency upon second-site Val323 mutations,c-Src-ES2 (T338C/V323A); c-Src-ES2 and c-Src-ES3 relative to c-Src-ES1,Enhanced inhibitor potency
same,fold increase in potency with V323A mutation,c-Src-ES2 (T338C/V323A); c-Src-ES2 relative to c-Src-ES1,5 fold
same,covalent labeling / adduct formation by full protein mass spectrometry,T338C c-Src,not observed
same,"inhibitory activity after gel filtration, WT c-Src",WT c-Src [1],lost
same,IC50,WT c-Src [2],> 5000 nM
same,inhibition of v-Src-ES1 in cells (global phosphotyrosine levels),v-Src-ES1 (I338C),inhibited v-Src-ES1 in a dose-dependent manner
